Results as given in patent US20240294572A1, “Antimicrobial Peptides” (priority 2021, published 2024).
Values after ≈ are worked out from the molar mass of the structure shown. Residues, ends and D or L forms follow the SMILES beside them. *: point of attachment. Octanoyl = CCCCCCCC(=O)*

Tests used:
S. aureus Newman = format: cell-based
Method: (§1) The antibacterial activity of peptides was evaluated using a standard broth microdilution protocol (Clinical Laboratories Standards Institute (CLSI): M07-A10. Methods for Dilution Antimicrobial Susceptibility Tests for Bacteria that grow aerobically; Approved Standard, Tenth Edition, 2015) with minor modifications as described (Mishra, et al. (2019) Proc. Natl. Acad. Sci., 116:13517-13522). In brief, peptides (10 μL per well) with 2-fold dilutions were made in 96-well polystyrene microplates. Subsequently, the logarithmic phase bacterial cultures (i.e., optical density at 600 nm ˜0.5) were diluted to 0.001 OD and aliquoted to 90 μL per well. The plates were incubated overnight at 37°° C. Bacterial controls were treated with water, and the wells containing only the TSB media were used as blank. Positive controls included the parent peptide LL-37 as well as KR12. Post incubation, the plates were read at 630 nm using ChroMate® 4300 Microplate Reader (Awareness Technology, FL).

S. aureus USA200 = format: cell-based
Method: as §1

S. aureus Mu50 = format: cell-based
Method: as §1

[1] = tested on: clinical strains of S. aureus, including USA200, USA400, Newman, and Mu50; format: cell-based
Method: as §1

S. aureus USA400 = format: cell-based
Method: as §1

HaCaT cells = format: cell-based, human
Method: Peptides were assessed for potential cytotoxicity using HaCaT cells (Addexbio Technologies, CA). Briefly, cells were seeded at a density of 1×10^4 per well in a tissue culture 96-well plate. DMEM was supplemented with 10% fetal bovine serum (FBS) and incubated at 37° C. in a 5% CO2 atmosphere for 24 hours. Culture medium was aspirated and replaced with fresh serum free media. Cells were exposed to different concentrations of peptides for 1 hour at 37° C. in a 5% CO2 atmosphere. Post-incubation, the cells were washed and incubated with 100 μL of DMEM media containing 20 μL of MTS reagent for 2 hours at 37° C. Absorbance was read at 492 nm using a ChroMate® microplate reader (Awareness Technology, FL).

[2] = tested on: human red blood cells (hRBCs); format: cell-based; settings: red cells of human, 1 h
Method: Hemolytic assays of peptides were performed as described (Lakshmaiah, et al. (2020) Proc. Natl. Acad. Sci., 117:19446-19454). Briefly, human red blood cells (hRBCs) were obtained from UNMC Blood Bank. The cells were washed 3× with isotonic saline (0.9% NaCl) and diluted to 2% (v/v). Peptides at various concentrations were added to the 2% blood cells and incubated at 37° C. for 1 hour. Post-incubation, the plates were spun at 2000 rpm for 10 minutes; aliquots of the supernatant were carefully transferred to a fresh 96-well microplate. The amount of cells lysed is proportional to the hemoglobin released and was measured at 545 nm using a ChroMate® microplate reader (Awareness Technology, FL). The percent lysis was calculated by assuming 100% release when human blood cells were treated with 1% Triton™ X-100, and 0% release when incubated with PBS. The peptide concentration that caused 50% lysis of hRBCs is defined as HC50. The cell selectivity index (CSI) was calculated as the ratio between HC50 and the MIC of the corresponding peptide against MRSA.

[3] = tested on: Klebsiella pneumonia ATCC 13883; experiment: Antibacterial broth microdilution MIC; format: cell-based
Method: as §1

S. aureus USA300 LAC [4] = format: cell-based
Method: as §1
To study the influence of medium conditions on the antimicrobial activity of peptides against S. aureus USA300, different pH, sodium chloride (NaCl), human sera were included into the antibacterial assays. Control experiments in TSB without any additions (pH 7.4) were set up in the same manner. In addition, antimicrobial activities of human LL-37, KR12, and C10-KR8d were compared in 10%, 50%, and 100% TSB as well as in TSB and MHB using E. coli ATCC 25922 and S. aureus USA300 LAC.

S. aureus USA300 LAC [5] = experiment: Bacterial resistance development, multiple passage experiment; format: cell-based; settings: 14 passages/days at sub-MIC
Method: This experiment was performed similar to the MIC determination with a few modifications as described (Mishra, et al. (2019) Proc. Natl. Acad. Sci., 116:13517-13522). In short, an exponential phase S. aureus USA300 culture (i.e., optical density at 600 nm≈0.5) was diluted and partitioned into a 96-well polystyrene microplate with ˜10^5 bacteria per well (90 μL aliquots). After treatment with 10 μL of peptide or nafcillin solutions at various concentrations, microplates were incubated at 37° C. overnight and read on a ChroMate® 4300 Microplate Reader at 630 nm (Awareness Technology, FL). Of the wells with sub-MIC levels of the peptides that retained growth, approximately half of the control wells were again reinoculated in fresh TSB with sub-MIC concertation of peptides or antibiotics to attain exponential phase for MIC determination. Up to 15 serial passages of the bacteria cultures were conducted. The increase in the fold change (MIC on given passage/MIC recorded in first day of passage) was used to determine the degree of drug resistance.

| MIC against clinical strains of S. aureus [1] [µM] | HC50 [2] [µM] | MIC (μM) KP [3] [µM] | MIC (μM) SA (S. aureus USA300 LAC [4]; USA300) [µM] | Minimal inhibitory concentration (MIC), pH = 6.8 (S. aureus USA300 LAC [4]; USA300, pH 6.8) [μM] | Compound | Minimal inhibitory concentration, Newman (S. aureus Newman) [µM] | Minimal inhibitory concentration, USA200 (S. aureus USA200) [µM] | Minimal inhibitory concentration, Mu50 (S. aureus Mu50) [µM] | Minimal inhibitory concentration, USA400 (S. aureus USA400) [µM] | relative toxicity to HaCaT cells (HaCaT cells) | MIC increase in multiple passage experiment (S. aureus USA300 LAC [5]) |
| --- | --- | --- | --- | --- | --- | --- | --- | --- | --- | --- | --- |
| 1.6 to 6.2 | 250 | 25 (≈ 37.9 µg/mL) | 3.1 to 6.2 | 12.5 | CCCCCCCC(=O)N[C@@H](CCCCN)C(=O)N[C@@H](CCCNC(=N)N)C(=O)N[C@H](C(=O)N[C@@H](Cc1c[nH]c2ccccc12)C(=O)N[C@@H](CCC(N)=O)C(=O)N[C@@H](CCCNC(=N)N)C(=O)N[C@H](C(=O)N[C@@H](CCCCN)C(=O)N[C@@H](CC(=O)O)C(=O)N[C@@H](Cc1ccccc1)C(N)=O)[C@@H](C)CC)[C@@H](C)CC [Peptide C8-KR10] (Octanoyl-KRIWQRIKDF-NH2) | 6.2 (≈ 9.39 µg/mL) | 6.2 (≈ 9.39 µg/mL) | 6.2 (≈ 9.39 µg/mL) | 3.1 (≈ 4.7 µg/mL) | slightly less toxic than C8-KR10d |  |
|  |  |  |  |  | CCOc1ccc2ccccc2c1C(=O)N[C@@H]1C(=O)N2[C@@H]1SC(C)(C)[C@@H]2C(=O)O [nafcillin, reference compound] |  |  |  |  |  | over 30 fold |
